Assay results taken from patent US7163931B2, “Compositions of estrogen-cyclodextrin complexes” (Schering Aktiengesellchaft, priority 2000, dated 2007).

Legend:
[1] = Acid dissociation constant (pKa) by photometric titration in aqueous media; assay type: physicochemical
Description: The Acid Dissociation Constant of the EE-β-CD complex in aqueous media was determined.
In aqueous solution, the ethinyl estradiol-β-cyclodextrin complex dissociates into its components according to the law of mass action. […] The pKa was measured by a photometric titration method following the guidance given in the Environmental Assessment Technical Handbook.

[2] = assay type: physicochemical
Description: The molar content of each degradation products is expressed relatively to the initial molar content of ethinyl estradiol that was added to each formulation. Four formulations as well as the pure ethinyl estradiol and the ethinyl estradiol β-cyclodextrin complex were investigated.

acid dissociation constant pKa [1]	pKa ([1]; acid dissociation constant pKa)	total known degradation products (% of initial content of EE) [2]	Compound
approx. 10.25	10.25 ± 0.04		C#C[C@]1(O)CC[C@H]2[C@@H]3CCc4cc(O)ccc4[C@H]3CC[C@@]21C [EE, ethinyl estradiol]
		0.385 % of initial content of EE	ethinyl estradiol-β-Cyclodextrin complex [EE-β-CD]
